Broadly, the IC50 is the point on the concentration scale where inhibition reaches its midpoint.

Read-outs that look alike come from different tables or passages of the source.

This passage reports IC50 results from US11479551B2, “MTA-cooperative PRMT5 inhibitors” (Mirati Therapeutics, Inc., priority 2019, dated 2022).

The target in this assay is PRMT5/MEP50 complex (Homo sapiens (Human), UniProt O14744). Description: PRMT5:MEP50 FlashPlate Assay (histone H4 peptide substrate, plus and minus MTA). In kind it is biochemical. As for the experimental part:
The PRMT5 inhibitory activity of compounds of the present invention was determined using either a PRMT5:MEP50 FlashPlate Assay (Reaction Biology Corporation) or a PRMT5:MEP50 HotSpot Assay (Reaction Biology Corporation).
1. PRMT5:MEP50 FlashPlate Assay

Setting [1] is: IC50 + 2 μM MTA (nM), in the presence of 2 μM MTA.
Where [2] appears, read: in the absence of MTA, read-out: IC50.

Chain of PRMT5/MEP50 complex (O14744 2-637): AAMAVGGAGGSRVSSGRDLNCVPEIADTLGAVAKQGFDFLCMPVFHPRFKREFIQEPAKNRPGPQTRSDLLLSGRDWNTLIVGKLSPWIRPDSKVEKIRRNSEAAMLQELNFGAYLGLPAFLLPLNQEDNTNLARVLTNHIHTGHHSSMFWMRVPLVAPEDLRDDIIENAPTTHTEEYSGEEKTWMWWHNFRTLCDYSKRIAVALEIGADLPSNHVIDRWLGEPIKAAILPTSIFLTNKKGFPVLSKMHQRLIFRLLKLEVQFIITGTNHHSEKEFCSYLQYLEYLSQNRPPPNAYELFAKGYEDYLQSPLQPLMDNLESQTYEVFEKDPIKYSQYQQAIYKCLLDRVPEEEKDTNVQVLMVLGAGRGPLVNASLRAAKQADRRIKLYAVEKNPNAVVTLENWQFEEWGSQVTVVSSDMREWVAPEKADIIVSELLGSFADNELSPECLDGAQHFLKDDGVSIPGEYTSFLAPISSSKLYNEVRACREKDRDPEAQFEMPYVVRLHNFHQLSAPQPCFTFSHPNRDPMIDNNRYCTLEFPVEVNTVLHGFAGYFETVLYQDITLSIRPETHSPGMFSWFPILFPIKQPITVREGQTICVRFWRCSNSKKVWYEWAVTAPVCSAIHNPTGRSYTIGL
Chain of PRMT5/MEP50 complex (Q9BQA1 2-342 partner): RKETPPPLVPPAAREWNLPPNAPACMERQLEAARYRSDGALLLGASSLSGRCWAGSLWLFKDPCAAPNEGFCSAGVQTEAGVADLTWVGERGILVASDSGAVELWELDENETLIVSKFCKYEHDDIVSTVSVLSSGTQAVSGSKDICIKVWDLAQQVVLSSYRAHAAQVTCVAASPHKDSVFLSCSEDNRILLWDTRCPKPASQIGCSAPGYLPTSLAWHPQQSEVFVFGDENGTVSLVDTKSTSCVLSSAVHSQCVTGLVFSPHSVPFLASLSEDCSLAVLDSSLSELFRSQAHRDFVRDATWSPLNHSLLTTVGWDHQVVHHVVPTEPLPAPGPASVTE

With `NCc1n[nH]c(=O)c2ccc(-c3cnn4c3CN(Cc3ccccc3)CC4)cc12` [Example 4-79, 4-(aminomethyl)-6-(5-benzyl-4,5,6,7-tetrahydropyrazolo[1,5-a]pyrazin-3-yl)phthalazin-1(2H)-one], the IC50 worked out at 27 nM under setting [1] and 930 nM under setting [2].
The corresponding values for `NCc1n[nH]c(=O)c2ccc(-c3ccnnc3)cc12` [Example 3-2, 4-(aminomethyl)-6-(pyridazin-4-yl)phthalazin-1(2H)-one] are 42000 nM and 10000 nM.
The corresponding values for `COc1ccccc1Oc1cncc(-c2ccc3c(=O)[nH]nc(CN)c3c2)c1` [Example 4-78, 4-(aminomethyl)-6-(5-(2-methoxyphenoxy)pyridin-3-yl)phthalazin-1(2H)-one] are 0.5 nM and 66 nM.
The corresponding values for `N#Cc1c[nH]c2ncc(-c3ccc4c(=O)[nH]nc(CN)c4c3)cc12` [Example 4-41, 5-(4-(aminomethyl)-1-oxo-1,2-dihydrophthalazin-6-yl)-1H-pyrrolo[2,3-b]pyridine-3-carbonitrile] are 56 nM and 4810 nM.
For the molecule `NCc1n[nH]c(=O)c2ccc(-c3cnc4ccc(OC(F)(F)F)cn34)cc12` [Example 4-38, 4-(aminomethyl)-6-(6-(trifluoromethoxy)imidazo[1,2-a]pyridin-3-yl)phthalazin-1(2H)-one], the IC50 came out at 25 nM under setting [1] and 850 nM under setting [2].
The corresponding values for `CCOc1cncc(-c2ccc3c(=O)[nH]nc(CN)c3c2)c1` [Example 3-49, 4-(aminomethyl)-6-(5-ethoxypyridin-3-yl)phthalazin-1(2H)-one] are 110 nM and 3850 nM.
The like results for `COc1ccc(C#N)c(-c2cncc(-c3ccc4c(=O)[nH]nc(CN)c4c3)c2)c1` [Example 8-8, 2-(5-(4-(aminomethyl)-1-oxo-1,2-dihydrophthalazin-6-yl)pyridin-3-yl)-4-methoxybenzonitrile] were, in that order, 20 nM and 795 nM.
The like results for `Cn1cc(-c2ccc3c(=O)[nH]nc(CN)c3c2)c(C(F)(F)F)n1` [Example 3-25, 4-(aminomethyl)-6-(1-methyl-3-(trifluoromethyl)-1H-pyrazol-4-yl)phthalazin-1(2H)-one] were, in that order, 71000 nM and greater than 100000 nM.
In the case of `Cc1ccccc1-c1ccc2c(=O)[nH]nc(CN)c2c1` [Example 3-60, 4-(aminomethyl)-6-(o-tolyl)phthalazin-1(2H)-one], the IC50 by setting is: under setting [1], 8100 nM; under setting [2], greater than 100000 nM.
The like results for `NCc1n[nH]c(=O)c2ccc(-c3cncc(Cl)c3)cc12` [Example 3-42, 4-(aminomethyl)-6-(5-chloropyridin-3-yl)phthalazin-1(2H)-one] were, in that order, 200 nM and 3580 nM.
The corresponding values for `NCc1n[nH]c(=O)c2ccc(-c3cnc4[nH]cc(CO)c4c3)cc12` [Example 4-47, 4-(aminomethyl)-6-(3-(hydroxymethyl)-1H-pyrrolo[2,3-b]pyridin-5-yl)phthalazin-1(2H)-one] are 19 nM and 667 nM.
For the molecule `NCc1n[nH]c(=O)c2ccc(-c3cncc(Oc4ncccn4)c3)cc12` [Example 4-64, 4-(aminomethyl)-6-(5-(pyrimidin-2-yloxy)pyridin-3-yl)phthalazin-1(2H)-one], the IC50 was determined as 230 nM under setting [1] and 4110 nM under setting [2].
The corresponding values for `Cn1ncc(-c2cncc(-c3ccc4c(=O)[nH]nc(CN)c4c3)c2)c1C#N` [Example 4-8, 4-(5-(4-(aminomethyl)-1-oxo-1,2-dihydrophthalazin-6-yl)pyridin-3-yl)-1-methyl-1H-pyrazole-5-carbonitrile] are 440 nM and greater than 100000 nM.
With `NCc1n[nH]c(=O)c2ccc(-c3cnn4c3CN(C(=O)C3CCCCC3)CC4)cc12` [Example 4-88, 4-(aminomethyl)-6-(5-(cyclohexanecarbonyl)-4,5,6,7-tetrahydropyrazolo[1,5-a]pyrazin-3-yl)phthalazin-1(2H)-one], the IC50 runs as follows: under setting [1], 45 nM; under setting [2], 1710 nM.
As for `Cc1ccc2ncc(-c3ccc4c(=O)[nH]nc(CN)c4c3)n2c1` [Example 4-20, 4-(aminomethyl)-6-(6-methylimidazo[1,2-a]pyridin-3-yl)phthalazin-1(2H)-one], the IC50 came to 47 nM under setting [1] and 1020 nM under setting [2].
The corresponding values for `CC(C)Oc1cncc(-c2ccc3c(=O)[nH]nc(CN)c3c2)c1` [Example 3-52, 4-(aminomethyl)-6-(5-isopropoxypyridin-3-yl)phthalazin-1(2H)-one] are 370 nM and 3000 nM.
The like results for `Cc1ccc(-c2c(-c3ccc4c(=O)[nH]nc(CN)c4c3)cnn2C)cc1` [Example 4-97, 4-(aminomethyl)-6-(1-methyl-5-(p-tolyl)-1H-pyrazol-4-yl)phthalazin-1(2H)-one] were, in that order, 1.6 nM and 49 nM.
Take `NCc1n[nH]c(=O)c2ccc(-c3cncn4cccc34)cc12` [Example 4-13, 4-(aminomethyl)-6-(pyrrolo[1,2-c]pyrimidin-4-yl)phthalazin-1(2H)-one]: the IC50 was 210 nM under setting [1] and 2560 nM under setting [2].
Take `COc1ccc(-c2cncc(-c3ccc4c(=O)[nH]nc(CN)c4c3)c2)c(C#N)c1` [Example 8-3, 2-(5-(4-(aminomethyl)-1-oxo-1,2-dihydrophthalazin-6-yl)pyridin-3-yl)-5-methoxybenzonitrile]: the IC50 under setting [1] turned out to be 2.3 nM and the IC50 under setting [2] worked out at 237 nM.
The like results for `Cc1c(Cl)cncc1-c1ccc2c(=O)[nH]nc(CN)c2c1` [Example 3-56, 4-(aminomethyl)-6-(5-chloro-4-methylpyridin-3-yl)phthalazin-1(2H)-one] were, in that order, 550 nM and 11500 nM.
The like results for `CC(C)c1cncc(-c2ccc3c(=O)[nH]nc(CN)c3c2)c1` [Example 3-14, 4-(aminomethyl)-6-(5-isopropylpyridin-3-yl)phthalazin-1(2H)-one] were, in that order, 17 nM and 413 nM.
The like results for `NCc1n[nH]c(=O)c2ccc(-c3cnc4ccccc4c3)cc12` [Example 3-6, 4-(aminomethyl)-6-(quinolin-3-yl)phthalazin-1(2H)-one] were, in that order, 5100 nM and 47100 nM.
Regarding `NCc1n[nH]c(=O)c2ccc(-c3cnc4cc(Cl)ccn34)cc12` [Example 4-28, 4-(aminomethyl)-6-(7-chloroimidazo[1,2-a]pyridin-3-yl)phthalazin-1(2H)-one], the IC50 under setting [1] turned out to be 140 nM and the IC50 under setting [2] came out at 6790 nM.
The corresponding values for `COc1c(-c2ccc3c(=O)[nH]nc(CN)c3c2)cnn1C` [Example 4-48, 4-(aminomethyl)-6-(5-methoxy-1-methyl-1H-pyrazol-4-yl)phthalazin-1(2H)-one] are 22 nM and 750 nM.
For `NCc1n[nH]c(=O)c2ccc(-c3cnc4ccc(OC5CC5)cn34)cc12` [Example 4-37, 4-(aminomethyl)-6-(6-cyclopropoxyimidazo[1,2-a]pyridin-3-yl)phthalazin-1(2H)-one], the IC50 by setting is: under setting [1], 1.1 nM; under setting [2], 213 nM.
Regarding `NCc1n[nH]c(=O)c2ccc(-c3cncc4nccn34)cc12` [Example 4-12, 4-(aminomethyl)-6-(imidazo[1,2-a]pyrazin-5-yl)phthalazin-1(2H)-one], the IC50 was 7400 nM under setting [1] and greater than 100000 nM under setting [2].
The like results for `NCc1n[nH]c(=O)c2ccc(-c3cnc4c(F)cc(Cl)cn34)cc12` [Example 4-27, 4-(aminomethyl)-6-(6-chloro-8-fluoroimidazo[1,2-a]pyridin-3-yl)phthalazin-1(2H)-one] were, in that order, 1300 nM and greater than 100000 nM.
The corresponding values for `N#Cc1cc(F)ccc1-c1cncc(-c2ccc3c(=O)[nH]nc(CN)c3c2)c1` [Example 8-5, 2-(5-(4-(aminomethyl)-1-oxo-1,2-dihydrophthalazin-6-yl)pyridin-3-yl)-5-fluorobenzonitrile] are 23 nM and 691 nM.
The like results for `CCCn1cc(-c2ccc3c(=O)[nH]nc(CN)c3c2)cn1` [Example 3-23, 4-(aminomethyl)-6-(1-propyl-1H-pyrazol-4-yl)phthalazin-1(2H)-one] were, in that order, 230 nM and 6430 nM.
On to `NCc1n[nH]c(=O)c2ccc(-c3cnn4c3CN(C(=O)C3CCCC3)CC4)cc12` [Example 4-87, 4-(aminomethyl)-6-(5-(cyclopentanecarbonyl)-4,5,6,7-tetrahydropyrazolo[1,5-a]pyrazin-3-yl)phthalazin-1(2H)-one], for which the IC50 under setting [1] was 22 nM and the IC50 under setting [2] is 1590 nM.
The like results for `NCc1n[nH]c(=O)c2ccc(-c3cncc(OCC4CC4)c3)cc12` [Example 3-53, 4-(aminomethyl)-6-(5-(cyclopropylmethoxy)pyridin-3-yl)phthalazin-1(2H)-one] were, in that order, 28 nM and 1350 nM.
The corresponding values for `NCc1n[nH]c(=O)c2ccc(-c3cnn4c3CN(C(=O)c3ccccc3)CC4)cc12` [Example 4-90, 4-(aminomethyl)-6-(5-benzoyl-4,5,6,7-tetrahydropyrazolo[1,5-a]pyrazin-3-yl)phthalazin-1(2H)-one] are 82 nM and 2730 nM.
The like results for `NCc1n[nH]c(=O)c2ccc(-c3cncc(Oc4cccnc4)c3)cc12` [Example 4-62, 4-(aminomethyl)-6-(5-(pyridin-3-yloxy)pyridin-3-yl)phthalazin-1(2H)-one] were, in that order, 120 nM and 2230 nM.
For `Cc1ccc2ncc(-c3ccc4c(=O)[nH]nc(CN)c4c3)n2n1` [Example 4-17, 4-(aminomethyl)-6-(6-methylimidazo[1,2-b]pyridazin-3-yl)phthalazin-1(2H)-one], the IC50 under setting [1] was found to be 150 nM and the IC50 under setting [2] amounted to 2050 nM.
As for `NCc1n[nH]c(=O)c2ccc(-c3cncc(Sc4ccccc4Cl)c3)cc12` [Example 4-58, 4-(aminomethyl)-6-(5-((2-chlorophenyl)thio)pyridin-3-yl)phthalazin-1(2H)-one], the IC50 reads like this: under setting [1], 1.8 nM; under setting [2], 36 nM.
